Each structure is given as a SMILES string. “Also recorded” adds a separate entry of the source.

Here are results for 3 compounds from patent publication US6329497A, “Sandramycin analogs” (The Scripps Research Institute, priority 1999, dated 2001).

For data set [1], the system named is 5'-d(GCTAGC)2. The data set can be described thus: Sandramycin binding to deoxyoligonucleotides, fluorescence quenching, 5'-d(GCTAGC)2. On the procedure: (§1) Apparent absolute DNA binding constants for 1-22 and related agents including luzopeptin A were obtained by measurement of the fluorescence quenching upon titration addition of calf thymus DNA or the deoxyoligonucleotides 5'-d(GCXXGC)2 where XX=AT, TA, GC, and CG. For each agent, the characteristic fluorescence excitation and emission spectra were recorded in 10 mM Tris-HCl, 75 mM NaCl (pH 7.4) buffer, FIG. 6. For the DNA binding assays which quantitate the fluorescence quenching, excitation outside the absorbance range of DNA was employed and the most intense fluorescence emission at a longer wavelength monitored. For assay of the DNA-induced fluorescence quenching of the agents, a 2 mL buffer solution of Tris-HCl (pH 7.4) and 75 mM NaCl was employed. For titration, small aliquots of DNA were added to solutions of the agents in Tris-HCl buffer (pH 7.4).
(§2) A pronounced downward curvature in an infinite lattice such as calf thymus DNA is recognized to arise in part from neighbor exclusion where the binding of an agent excludes the subsequent binding at nearby sites. […]
(§3) After 5 min of stirring, an initial fluorescence reading was taken with minimum exposure to the excitation beam. […] The results of the titration were analyzed by Scatchard analysis. […]

Data set [2] concerns 5'-d(GCGCGC)2. The data set can be described thus: Sandramycin binding to deoxyoligonucleotides, fluorescence quenching, 5'-d(GCGCGC)2. The protocol: as §1, §2, §3
Data set [3] has as its system 5'-d(GCCGGC)2. Kind of data set: Sandramycin binding to deoxyoligonucleotides, fluorescence quenching, 5'-d(GCCGGC)2. The protocol: as §1, §2, §3
Data set [4] concerns the target HIV-1 reverse transcriptase (Human immunodeficiency virus type 1 group M subtype B, UniProt P04585). The data set can be described thus: Inhibition of HIV-1 reverse transcriptase. The format is biochemical.
For data set [5], the system named is HL-60. Kind of data set: In vitro cytotoxic activity, HL-60. It counts as cell-based.
Data set [6] relates to L1210 cell line. The data set can be described thus: In vitro cytotoxic activity, L1210. It counts as cell-based.
For data set [7], the system named is leukemia cell lines. Conditions: typical.
Data set [8] has as its system melanomas, carcinomas, and adenocarcinomas. The data set can be described thus: In vitro cytotoxic activity of 4 against tumor cell lines. The format is cell-based.
Data set [9] has as its system two single mutant and one double mutant of HIV-1 reverse transcriptase. Conditions: cited from earlier work.

Usually IC50 stands for the concentration at which inhibition is half-maximal. The low end stands for greater potency, the high end for weaker potency. As for `CC(C)[C@H]1C(=O)OC[C@H](NC(=O)c2nc3ccccc3cc2O)C(=O)N2CCCC[C@@H]2C(=O)NCC(=O)N(C)CC(=O)N(C)[C@H](C(C)C)C(=O)OC[C@@H](NC(=O)c2nc3ccccc3cc2O)C(=O)N2CCCC[C@@H]2C(=O)NCC(=O)N(C)CC(=O)N1C` [compound 1, Sandramycin], the “G° relative to 5'-d(GCATGC)2” value came out at 0.6 kcal/mol in [1], 0.3 kcal/mol in data set [2] and 0.6 kcal/mol in [3]. The “HIV-1 reverse transcriptase inhibition, in words” value in [4] is recorded as “slightly more effective than luzopeptin A”. In [4] (range given for both agents), the IC50 lay within 130 to 190 nM.
For the compound `CC(C)[C@H]1C(=O)OC[C@@H](NC(=O)c2ccc3ccccc3n2)C(=O)N2CCCC[C@H]2C(=O)NCC(=O)N(C)CC(=O)N(C)[C@@H](C(C)C)C(=O)OC[C@@H](NC(=O)c2ccc3ccccc3n2)C(=O)N2CCCC[C@H]2C(=O)NCC(=O)N(C)CC(=O)N1C` [compound 4, (N-(Quinol-inyl-2-carbonyl)-D-Ser-Pip-Gly-Sar-NMe-Val)2 (Serine Hydroxyl) Dilactone], the “cytotoxic potency, in words” value in [5] is listed as “exceptionally potent; also recorded: unusually potent”. Further, the “cytotoxic potency, fold less potent than 1” value in [6] came out at 10. For the same compound, in [7], the “fold less potent than sandramycin (luzopeptin A or sandramycin)” value was 4-10. In [4], the “HIV-1 reverse transcriptase inhibition, in words” value is “Comparable but slightly less potent inhibition” and the “fold less potent than sandramycin” value was 3. Moreover, the “rank order of cytotoxic potency” value in data set [8] (carcinomas and adenocarcinomas) is listed as 4>luzopeptin A>sandramycin (1). Further, the “rank order of cytotoxic potency” value in [8] (melanomas) is reported as 4=luzopeptin A>sandramycin (1). In addition, the “fold more potent than sandramycin (luzopeptin A or sandramycin)” value in data set [8] (melanomas, carcinomas, adenocarcinomas) was 1-10,000.
In the case of `COc1ccc2nc(C(=O)N[C@@H]3COC(=O)[C@H](C(C)(C)O)N(C)C(=O)CN(C)C(=O)CNC(=O)[C@@H]4[C@@H](OC(=O)[C@@H]5C[C@H]5C)CC=NN4C(=O)[C@H](NC(=O)c4cnc5cc(OC)ccc5n4)COC(=O)[C@H](C(C)(C)O)N(C)C(=O)CN(C)C(=O)CNC(=O)[C@@H]4C(OC(=O)[C@@H]5C[C@H]5C)CC=NN4C3=O)cnc2c1` (some centres unmarked) [quinoxapeptin A], the “relative effectiveness against mutants versus HIV-1 reverse transcriptase” value in data set [9] was 1-3.
